Reference: patent publication US10100011B2, “Pentadienoyl piperidine derivative and use thereof” (Industry-Academic Cooperation Foundation, Yonsei University, priority 2014, dated 2018)

Legend:
[1] = test system: 3T3L1 cells; assay: Adipocyte differentiation inhibition in preadipocytes (Oil-red O staining); assay type: cell-based, mouse; settings: Mus musculus, 3T3-L1, treated every two days during 14 days differentiation, Oil-red O O.D. 600 nm, read-out: adipocyte differentiation inhibition activity, EC50 value
Description: Preadipocytes, 3T3L1 cells, were aliquoted into a 12-well plate and cultured in a DMEM medium containing 1% penicillin-streptomycin, 1% nonessential amino acid, and 10% fetal bovine serum (FBS) in a 5% CO2 incubator at 37° C. until confluence. The 3T3L1 cells grown to confluence were cultured for two days in a medium containing 0.5 mM isobutyl-methylxanthine, 1 μM dexamethasone (MDI), and 1 μg/ml insulin, thereby being differentiated into adipocytes. Subsequently, the differentiated adipocytes were further cultured for two days in a DMEM medium including 1 μg/ml insulin, thereby being differentiated into mature adipocytes. Subsequently, the differentiated mature adipocytes were further cultured for 10 days while replacing a used DMEM medium with a new DMEM medium every two days. As a result, completely differentiated adipocytes were formed.
3T3-L1 cells were treated with each of a total of four novel compound types at different concentrations every two days from the first day of cell differentiation induction by addition of DMI. Each of the derivative compounds was dissolved in DMSO and then used. A negative control group including only DMSO was included in this experiment. Cell culture was carried out for 14 days. When differentiation was completed, a medium was removed and lipid droplets contained in differentiated adipocytes were stained. To stain the lipid droplets, cells were washed with phosphate buffered saline (PBS) twice and then fixed with 10% buffered neutral formalin for one hour, followed by washing with PBS once. Subsequently, 1 ml of Oil-red-O dye for staining lipid droplets red was fed into a 12-well plate and lipid droplets were stained for one hour, followed by washing with distilled water twice. To measure the concentration of neutral fat contained in the differentiated 3T3L1 cells, the stained lipid droplets were dissolved in 1 ml of isobutanol, followed by measuring an O.D value at 600 nm.

[2] = test system: C57BL/6J mice; assay: Oral glucose tolerance test, fasting blood glucose and insulin in mice fed high-fat diet; assay type: in vivo, mouse
Description: An obesity induction diet used in this experiment was a high-fat diet (HFD: 40% fat calories, 17 g of lard+3% corn oil/100 g diet), and the compositions of diets including the LJ-2501, LJ-2488, LJ-2495, LJ-2496 compounds were identical to that of HFD, except that each of the compounds was included in an amount of about 0.05% (Table 2). As a control drug, an anti-obesity drug, sibutramine (Sibut), was added in an amount of about 0.01% to the high-fat diet and a normal diet group (Chow) was fed with commercial rodent chow.
5-week old 40 male C57BL/6J mice (Orient Bio., Korea) were fed with hard feed and accommodated in a laboratory environment for one week. Subsequently, in accordance with a randomized block method, the mice were randomly grouped into a normal diet group, a high-fat diet control group, two experimental substance groups, and […] and raised for a total of 10 weeks (n=8/group). Diets were supplied with water between 10 am and 11 am every day. An intake amount was measured every day and the body weights of the mice were measured every week. To prevent temporal weight change due to feed intake, feedboxes were removed and, after two hours, the body weights were measured. The experimental animals were fasted for 12 hours or more and then anesthetized with diethyl ether, followed by collecting blood, liver, and visceral adipose tissues (epididymal fat, perirenal fat, mesenteric fat, and retroperitoneal fat). The collected samples were washed with 0.1 M phosphate buffered saline (pH 7.4) and then weighed. Blood samples collected from abdominal aortas were centrifuged at 1000×g for 15 minutes, thereby separating plasma.
The experimental animals were fasted for 18 hours after being raised eight weeks for experiment and orally administered d-glucose in an amount of 2 g/kg body weight. At 15 minutes, 30 minutes, 60 minutes, 120 minutes after the d-glucose administration, blood was collected from the tail veins of the mice. A glucose concentration in the collected blood was measured by means of a strip-operated blood glucose sensor (ONETOUCH Ultra, Inverness Medical Ltd. Stockport, UK).
A glucose concentration in plasma during fasting was measured by means of an automatic biochemical analyzer (Express Plus, Chiron Diagnostics Co., USA) and a kit reagent for analysis was purchased from Bayer (Tarrytown, N.Y., USA). An insulin concentration in plasma was measured using the Rat Insulin RIA kit (LINCO Research, Inc, St. Charles, USA).

[3] = test system: genes related to adipose tissue generation and thermogenesis in visceral fat tissue; assay: Gene (RT-PCR) and protein (Western blotting) expression in visceral (epididymal) fat tissue of mice; assay type: in vivo, mouse; settings: compound in high-fat diet
Description: (§1) 1 ml of a TRIzol solution per 0.1 g of epididymal fat tissue was added to the pulverized tissue, followed by centrifuging at 4° C. and 12,000×g for 10 minutes. A supernatant was transferred into a new tube and then 200 μl of chloroform was added thereto, followed by vortexing. This process was repeated twice and then a supernatant was transferred into a new tube. Subsequently, isopropanol and the supernatant were mixed in a ratio of 1:1 and strongly shook ten times, followed by standing at room temperature for 10 minutes. Subsequently, centrifugation was carried out at 12,000×g and 4° C. for 10 minutes, followed by removing a supernatant and adding 1 ml of 70% ethanol to the remaining precipitate. Subsequently, centrifugation was carried out at 7,500×g and 4° C. for five minutes. Ethanol was removed and then the tube containing an RNA precipitate was dried at room temperature for five minutes. The dried RNA pellet was dissolved in nuclease free water. The concentrations of the extracted RNA samples were measured at wavelengths of 260 nm and 280 nm by means of a UV/VIS spectrophotometer (Beckman Coulter, DU730). In addition, the extracted RNA samples were electrophoresed on an agarose gel to confirm the quality of the RNA samples.
The RNA samples extracted from epididymal fat tissue were subjected to reverse transcription using oligo dT primers and the Superscript reverse transcription enzyme (GIBCO BRL, Gaithersburg, Md., USA), thereby synthesizing cDNAs. Each of the synthesized cDNAs was used as a template and 5′ and 3′ flanking sequences of cDNA of each of genes to be amplified were used as primers, thereby performing PCR. 1 μl of each of amplified PCR products was electrophoresed on a 1% agarose gel and a DNA band was observed.
A predetermined amount of visceral fat or liver tissue was homogenized with liquid nitrogen and a lysis buffer in a mortar and then centrifuged at 13,000 rpm and 4° C. for 20 minutes. Subsequently, a middle layer was collected and subjected to protein quantification according to the Bradford method. 50 μg of a protein was electrophoresed on an SDS polyacryamide gel and then electro-blotted on hyperfilm PVDF. A reaction was carried out using a corresponding antibody and detection was performed using ECL.

[4] = test system: genes related to lipogenesis and AMPK in liver tissue; assay: Gene (RT-PCR) and protein (Western blotting) expression in liver tissue of mice; assay type: in vivo, mouse; settings: compound in high-fat diet, pattern similar to Chow group
Description: as §1, with “The dried RNA pellet was dissolved in nuclease free water.” left out, “In addition, the extracted RNA samples were electrophoresed on an agarose gel to confirm the quality of the RNA samples.” left out
A predetermined amount of visceral fat or liver tissue was homogenized with liquid nitrogen and a lysis buffer in a mortar and then centrifuged at 13,000 rpm and 4° C. for 20 minutes. Subsequently, a middle layer was collected and subjected to protein quantification according to the Bradford method. […]

[5] = RT-PCR, levels similar to Chow group

CSc1ccc(/C=C/C=C/C(=O)N2CCCCC2)cc1 [LJ-2501, (2E,4E)-5-(4-(methylthio)phenyl)-1-(piperine-1-yl)penta-2,4-diene-1-one]
EC50 [1]: 101 µM
blood glucose concentrations after oral glucose compared to HFD (in words) ([2]; 2 g/kg glucose orally, 15, 30, 60 and 120 minutes): reduced in all time slots
insulin resistance index (HOMA-IR), reduction compared to HFD ([2]; calculated from fasting glucose and insulin, 10 weeks): 61%
blood glucose concentration during fasting, reduction compared to HFD ([2]; compound in high-fat diet for 10 weeks): 20%
blood insulin concentration, reduction compared to HFD ([2]; compound in high-fat diet for 10 weeks, fasting): 59%
area under the curve (AUC) of blood glucose concentration, reduction compared to HFD ([2]; oral glucose tolerance test, 2 g/kg glucose): 35%
expression levels of NRF-1, COX2 and TFAM in visceral fat tissue ([3]; RT-PCR): increasing
gene expression levels of PGC-1α, SIRT1 and UCP1 in visceral adipose tissue compared to HFD [3, 5]: increased
mRNA expression of C/EBPα, PPARγ2 and target genes (CD36, FAS, leptin) in epididymal fat tissue compared to HFD [3, 5]: reduced
phosphorylation level of CREB proteins in visceral adipose tissue ([3]; Western blotting): increased
HFD-caused increase of expression of downstream genes of AMPK (LXRα, SREBP-1c, LPL, FAS, ACC) in liver tissue ([4]; RT-PCR): reversed
HFD-caused reduction of AMPK phosphorylation in liver tissue ([4]; Western blotting): reversed
